Laboratory results from the supplement of paper PMC10307832.

Columns and labels:
Test in all cases: relative viability (nuclei count vs DMSO), 5 days (fraction); higher = more cells survive
Neratinib + Luminespib = compound: CCOc1cc2ncc(C#N)c(Nc3ccc(OCc4ccccn4)c(Cl)c3)c2cc1NC(=O)/C=C/CN(C)C [Neratinib] + CCNC(=O)c1noc(-c2cc(C(C)C)c(O)cc2O)c1-c1ccc(CN2CCOCC2)cc1 [Luminespib] (partner 0.01 µM)
How it was run: (§1)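 A single step with final 0.05% Triton X-100, 1% formaldehyde and 1 ug/ml Hoechst fixed the cells and stained nuclei 5 days after treatment. Lung cancer cell lines in 1536-well plates had been treated by pin tool the day after seeding with one drug alone or a fixed anchor-drug dose plus five library-drug doses (not always all listed) in √10 steps, and nuclei were counted on 4× images. Relative viability is the ratio of nuclei in treated wells to nuclei in vehicle wells, taken as the median of duplicate plates.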

Neratinib + Foretinib = compound: CCOc1cc2ncc(C#N)c(Nc3ccc(OCc4ccccn4)c(Cl)c3)c2cc1NC(=O)/C=C/CN(C)C [Neratinib] + COc1cc2c(Oc3ccc(NC(=O)C4(C(=O)Nc5ccc(F)cc5)CC4)cc3F)ccnc2cc1OCCCN1CCOCC1 [Foretinib] (partner 0.25 µM)
How it was run: as §1

Neratinib + Dasatinib = compound: CCOc1cc2ncc(C#N)c(Nc3ccc(OCc4ccccn4)c(Cl)c3)c2cc1NC(=O)/C=C/CN(C)C [Neratinib] + Cc1nc(Nc2ncc(C(=O)Nc3c(C)cccc3Cl)s2)cc(N2CCN(CCO)CC2)n1 [Dasatinib] (partner 0.075 µM)
How it was run: as §1

Neratinib + Decitabine = compound: CCOc1cc2ncc(C#N)c(Nc3ccc(OCc4ccccn4)c(Cl)c3)c2cc1NC(=O)/C=C/CN(C)C [Neratinib] + Nc1ncn([C@H]2C[C@H](O)[C@@H](CO)O2)c(=O)n1 [Decitabine] (partner 2 µM)
How it was run: as §1

Row | Cell Line | relative viability (Neratinib + Luminespib; first compound 0.01 µM) | relative viability (Neratinib + Luminespib; first compound 0.03162 µM) | relative viability (Neratinib + Luminespib; first compound 0.1 µM) | relative viability (Neratinib + Luminespib; first compound 0.3162 µM) | relative viability (Neratinib + Luminespib; first compound 1 µM) | relative viability (Neratinib + Foretinib; first compound 0.01 µM) | relative viability (Neratinib + Foretinib; first compound 0.03162 µM) | relative viability (Neratinib + Foretinib; first compound 0.1 µM) | relative viability (Neratinib + Foretinib; first compound 0.3162 µM) | relative viability (Neratinib + Foretinib; first compound 1 µM) | relative viability (Neratinib + Dasatinib; first compound 0.01 µM) | relative viability (Neratinib + Dasatinib; first compound 0.03162 µM) | relative viability (Neratinib + Dasatinib; first compound 0.1 µM) | relative viability (Neratinib + Dasatinib; first compound 0.3162 µM) | relative viability (Neratinib + Dasatinib; first compound 1 µM) | relative viability (Neratinib + Decitabine; first compound 0.01 µM) | relative viability (Neratinib + Decitabine; first compound 0.03162 µM) | relative viability (Neratinib + Decitabine; first compound 0.1 µM) | relative viability (Neratinib + Decitabine; first compound 0.3162 µM) | relative viability (Neratinib + Decitabine; first compound 1 µM)
1 | NCI-H1915 | 0.845 | 0.818 | 0.422 | 0.792 | 0.462 | 1.08 | 1.08 | 1.08 | 1.05 | 0.709 | 0.384 | 0.339 | 0.218 | 0.332 | 0.287 | 0.262 | 0.271 | 0.251 | 0.241 | 0.286
2 | NCI-H1944 | – | 0.669 | – | 0.523 | 0.306 | 0.878 | 0.929 | – | 0.599 | 0.327 | 0.201 | 0.211 | 0.193 | 0.205 | 0.181 | 0.458 | 0.482 | 0.423 | 0.389 | 0.39
3 | NCI-H1975 | 0.289 | 0.174 | 0.311 | 0.123 | 0.186 | – | 1.02 | 0.972 | 0.421 | 0.174 | 0.443 | 0.505 | 0.313 | 0.124 | 0.146 | 0.36 | 0.444 | 0.351 | 0.346 | 0.19
4 | NCI-H1993 | 0.717 | 0.83 | 0.719 | 0.599 | 0.511 | 0.82 | 0.662 | 0.6 | 0.567 | 0.657 | 0.638 | 0.607 | 0.558 | 0.589 | 0.575 | 0.643 | 0.628 | 0.272 | 0.484 | 0.578
5 | NCI-H2009 | 0.998 | 1.01 | 0.828 | 1.01 | 0.962 | 1.2 | 1.29 | 1.17 | 1.25 | 1.05 | 0.3 | 0.347 | 0.301 | 0.292 | 0.206 | 0.358 | 0.396 | 0.342 | 0.447 | 0.387
6 | NCI-H2023 | 0.999 | 0.871 | 0.579 | 0.709 | 0.579 | 0.797 | 0.803 | 0.415 | 0.454 | 0.257 | 0.576 | 0.562 | 0.473 | 0.479 | 0.42 | 0.245 | 0.232 | 0.206 | 0.217 | 0.376
7 | NCI-H2085 | 0.4 | 0.455 | 0.353 | 0.3 | 0.294 | 0.801 | 1.08 | 0.761 | 0.64 | 0.31 | 0.261 | 0.264 | 0.254 | 0.21 | 0.234 | 0.595 | 0.547 | 0.542 | 0.485 | 0.516
8 | NCI-H2087 | 0.16 | 0.172 | 0.151 | 0.14 | 0.148 | 1.36 | 1.24 | 1.05 | 0.742 | 0.536 | 0.936 | 0.888 | 0.605 | 0.584 | 0.373 | 0.272 | 0.333 | 0.239 | 0.254 | 0.215
9 | NCI-H2126 | 0.932 | 0.853 | 0.828 | 0.822 | 0.464 | 1.37 | 1.36 | 1.13 | 1.09 | 0.536 | 0.589 | 0.602 | 0.523 | 0.426 | 0.338 | 0.644 | 0.632 | 0.54 | 0.566 | 0.556
10 | NCI-H2170 | 0.727 | 0.637 | 0.365 | 0.271 | 0.304 | 1.04 | 1.07 | 0.909 | 0.303 | 0.27 | 0.527 | 0.563 | 0.283 | 0.176 | 0.196 | 0.548 | 0.457 | 0.412 | 0.213 | 0.18
11 | NCI-H2342 | 0.72 | 0.717 | 0.712 | 0.621 | – | 1.08 | 0.993 | 0.891 | 0.703 | 0.525 | 0.326 | 0.318 | 0.285 | 0.26 | 0.318 | – | 0.829 | 0.743 | 0.558 | 0.649
12 | NCI-H2347 | 0.472 | 0.385 | – | 0.483 | 0.289 | 0.686 | 0.909 | – | 0.586 | 0.711 | 0.282 | 0.35 | – | 0.375 | 0.2 | 0.679 | 0.606 | – | 0.545 | 0.633
13 | NCI-H2405 | 0.859 | 0.73 | 0.562 | 0.577 | 0.354 | 1.06 | 1.08 | 0.922 | 1.04 | 0.57 | 0.225 | 0.23 | 0.218 | 0.212 | 0.199 | 0.799 | 0.74 | 0.769 | 0.675 | 0.669
14 | NCI-H3122 | 0.103 | 0.0884 | 0.119 | 0.102 | 0.11 | 1.05 | 0.985 | 0.94 | 0.958 | 0.171 | 0.872 | 0.939 | 0.729 | 0.565 | 0.132 | 0.365 | 0.544 | 0.488 | 0.457 | 0.364
15 | PC-3 [JPC-3] | 0.702 | 0.733 | 0.648 | 0.496 | 0.326 | 1.07 | 1.14 | 0.927 | 0.815 | 0.318 | 1.11 | 1.1 | 0.885 | 0.757 | 0.286 | 0.814 | 0.912 | 0.764 | 0.547 | 0.606
16 | PC-14 | 0.176 | 0.129 | 0.156 | 0.116 | 0.129 | 1.04 | 0.973 | 0.862 | 0.929 | 0.335 | 0.22 | 0.265 | 0.195 | 0.0282 | 0.0541 | 0.217 | 0.285 | 0.241 | 0.194 | 0.108
